Measurements taken from patent US20170055529A1, “BROAD SPECTRUM WEED CONTROL IN FLOODED RICE BY IN-WATER APPLICATION OF AUXIN HERBICIDES” (priority 2015, published 2017).
Marks after values point to notes of the source that are not given here.

How the values were obtained:
Type in all cases: in vivo
[1] = tested on: 'M202' rice (Japonica rice variety from California, USA); assay: Greenhouse in-water application, transplanted paddy rice (small pots), crop injury
Excerpt: (§1) Weed seeds of the desired test plant species were planted in puddled soil (mud) prepared by mixing a non-sterilized mineral soil (approximately 50 percent silt, 26 percent clay, and 24 percent sand, with a pH of about 7.6 and an organic matter content of about 2.9 percent) and water at a 1:1 volumetric ratio. The prepared mud was dispensed in 365 milliliter (mL) aliquots into 16-ounce (oz.) non-perforated plastic pots with a surface area of 86.59 square centimeters (cm^2) leaving a headspace of 3 centimeters (cm) in each pot. Mud was allowed to dry overnight prior to planting or transplanting. Rice seeds were planted in Sun Gro® MetroMix® 360 planting mixture, which typically has a pH of 6.0 to 6.8 and an organic matter content of about 30 percent, in plastic plug trays. Seedlings at the second or third leaf stage of growth were transplanted into 840 mL of mud contained in 32-oz. non-perforated plastic pots with a surface area of 86.59 cm^2 four days prior to herbicide application. The paddy was created by filling the headspace of the pots with 2.5 to 3 cm of water. When required to ensure good germination and healthy plants, a fungicide treatment and/or other chemical or physical treatment was applied. The plants were grown for 4-22 days (d) in a greenhouse with an approximate 14-hour (h) photoperiod which was maintained at about 29° C. during the day and 26° C. during the night. Nutrients were added as Osmocote® (19:6:12, Nitrogen:Phosphorus:Potassium (N:P:K)+minor nutrients) at 2 g per 16 oz. pot and 4 g per 32 oz. pot. Water was added on a regular basis to maintain the paddy flood, and supplemental lighting was provided with overhead metal halide 1000-Watt lamps as necessary. The plants were used for testing when they reached the second or third true leaf stage.
(§2) Triclopyr triethylammonium (as Grandstand® R, 359.5 grams acid equivalent per liter (g ae/L)); fluroxypyr methylheptyl ester (meptyl or MHE, as Starane™, 179.8 g ae/L); 2,4-dichlorophenoxyacetic acid dimethylammonium (2,4-D DMA, as Weedar® 64, 455.4 g ae/L); and penoxsulam (as Grasp® SC, 239.7 grams active ingredient per liter (g ai/L) were used. Measured amounts of formulated compounds were placed in individual 120 mL glass vials and were dissolved in 40 mL of an aqueous mixture containing 1.25% volume per volume (v/v) Agri-Dex® crop oil concentrate. Generally, multiple concentrations were tested utilizing the same stock solution. Applications were made by injecting an appropriate amount of the application solution into the aqueous layer of the paddy. Control plants were treated in the same manner with the solvent blank.
(§3) The treated plants and control plants were placed in a greenhouse as described above and water was added as needed to maintain a paddy flood. After approximately 3 weeks the condition of the test plants, compared with that of the untreated plants, was determined visually and scored on a scale of 0 to 100 percent where 0 corresponds to no injury or growth reduction and 100 corresponds to complete kill.

[2] = tested on: 'Wells' rice (Medium grain rice variety from Arkansas, USA); assay: as above
Excerpt: as §1, §2, §3

[3] = tested on: CYPDI = Cyperus difformis (small-flower flatsedge); assay: Greenhouse in-water herbicidal activity (large pots); conditions: for Percent (%) Visual Injury Ratings - 16 DAA, CYPDI / Percent (%) Visual Injury Ratings - 22 DAA, CYPDI: greenhouse large pots; for pest or weed control at 280 g/ha / pest or weed control at 560 g/ha / pest or weed control at 1120 g/ha: Cyperus difformis, 744 h, read-out: Percent (%) Visual Injury Ratings - 31 DAA, CYPDI
Description: Weed seeds or nutlets of the desired test plant species were planted in puddled soil (mud) prepared by mixing shredded topsoil and deionized (DI) water in a 1:1 ratio in a standard cement mixer. […] Osmocote® (17:6:10 N:P:K; 0.5 teaspoon) was added to the bottom of a container. The container is a high-density polyethylene (HDPE) round container (4.163 L (1.1 gallon), 15 cm high×20.55 cm diameter; for treatment purposes, the surface area is calculated as 331 cm^2 with 1 hectare equivalent to 10^8 cm^2). The mud mixture (2,750 mL) was added to the container filling it half full. Stakes were placed horizontally in each container to create separate areas for which to plant each different plant species. Water was added on a regular basis to maintain the paddy flood, and supplemental lighting was provided with overhead metal halide 1000-Watt lamps as necessary.
Once the plants had reached the proper size (the growth stage of the various species ranged from 2 to 4 leaves), the containers were flooded with city water to a depth of 3 cm submerging the plants 80-100%. The outside of each container was measured and marked at a 3-cm line with a black permanent marker to eliminate water level variability during the trial period. Water was added daily to maintain this water depth. Triclopyr triethylammonium (as Garlon® 3 A, 360 g ae/L); triclopyr butoxyethyl ester (as Garlon® 4, 480 g ae/L); fluroxypyr methylheptyl ester (meptyl or MHE, as Starane® Ultra, 333 g ae/L); fluroxypyr acid (850 grams acid equivalent per kilogram (g ae/kg)); 2,4-dichlorophenoxyacetic acid dimethylammonium (2,4-D DMA, as Weedar® 64 EC, 456 g ae/L); 2,4-dichlorophenoxyacetic acid 2-ethylhexyl ester (2,4-D 2-EHE, as Agri Star®, 456 g ae/L); clopyralid olamine (as Stinger®, 360 g ae/L); and penoxsulam (as Grasp® SC, 240 g ai/L) were used. Each herbicide treatment for each pot was mixed in water (80 mL) and applied directly into the paddy water at rates adjusted to the surface area. The dry formulations were pre-weighed based on the rate of the active ingredient to be applied on a per unit area basis, placed in 30 mL vials, and capped. Granules were spread onto the top of the water in each pot and dispersed throughout the water. Treatments were replicated 3 times.
The treated plants and control plants were placed in a greenhouse as described above and water was added as needed to maintain a flood depth of 3 cm. […]

Compound | Percent (%) Visual Injury Ratings - 20 DAA, M202′ Rice ([1]; 280 g ae/ha in-water) | Percent (%) Visual Injury Ratings - 20 DAA, M202′ Rice ([1]; 560 g ae/ha in-water) | Percent (%) Visual Injury Ratings - 20 DAA, M202′ Rice ([1]; 1120 g ae/ha in-water) | Percent (%) Visual Injury Ratings - 20 DAA, Wells′ Rice ([2]; 280 g ae/ha in-water) | Percent (%) Visual Injury Ratings - 20 DAA, Wells′ Rice ([2]; 560 g ae/ha in-water) | Percent (%) Visual Injury Ratings - 20 DAA, Wells′ Rice ([2]; 1120 g ae/ha in-water) | Percent (%) Visual Injury Ratings - 16 DAA, CYPDI ([3]; 35 g ae/ha) | Percent (%) Visual Injury Ratings - 22 DAA, CYPDI ([3]; 35 g ae/ha) | Percent (%) Visual Injury Ratings - 16 DAA, CYPDI ([3]; 70 g ae/ha) | Percent (%) Visual Injury Ratings - 22 DAA, CYPDI ([3]; 70 g ae/ha) | Percent (%) Visual Injury Ratings - 16 DAA, CYPDI ([3]; 140 g ae/ha) | Percent (%) Visual Injury Ratings - 22 DAA, CYPDI ([3]; 140 g ae/ha) | Percent (%) Visual Injury Ratings - 16 DAA, CYPDI ([3]; 280 g ae/ha) | Percent (%) Visual Injury Ratings - 22 DAA, CYPDI ([3]; 280 g ae/ha) | pest or weed control at 280 g/ha [3] | pest or weed control at 560 g/ha [3] | pest or weed control at 1120 g/ha [3]
O=C(O)COc1nc(Cl)c(Cl)cc1Cl [Triclopyr triethanolamine (Garlon ® 3A), triethylammonium 2[(3,5,6-trichloro-2-pyridinyl)oxy]acetate] | 0% | 0% | 20% | 0% | 0% | 10% | 100% | 100% | 98% | 100% | 97% | 100% | 100% | 100% | 97% | 99% | 100%
CCCCCCC(C)OC(=O)COc1nc(F)c(Cl)c(N)c1Cl (stereo not drawn) [Fluroxypyr-meptyl (Starane ® Ultra), 1-methylheptyl 2-[(4-amino-3,5-dichloro-6-fluoro-2-pyridinyl)oxy]acetate] | 0% | 0% | 35% | 0% | 0% | 10% | 8% | 28% | 13% | 28% | 20% | 79% | 33% | 89% | 100% | 100% | 100%
O=C(O)COc1ccc(Cl)cc1Cl [2,4-D DMA (Weedar ® 64), dimethylammonium 2-(2,4-dichlorophenoxy)acetate] | 0% | 0% | 10* % | 0% | 0% | 0% | 99% | 89% | 100% | 76% | 98% | 92% | 97% | 98% | 100% | 100% | 100%
